As usually defined, the Ki is a measure of affinity in units of concentration, obtained from inhibition or displacement.

This passage reports Ki results from patent US8628771B2, “CA IX-specific inhibitors” (Institute of Virology Slovak Academy of Sciences, priority 2002, dated 2014).

Values joined by “and” are separate entries in the source; they are usually repeats but may differ in a detail not shown here. Identical values can stand only once. Like-named read-outs stand apart in the source and are kept apart here.

The target in experiment [1] is T1, hCA I (Homo sapiens, UniProt P00915).
T1 construct: made in house; host or cells: Escherichia coli BL21 (DE3)
Nature of the experiment: CA esterase activity assay, isozyme hCA I. Format: biochemical.
Procedure: (§1) Human CA I and CA II cDNAs were expressed in Escherichia coli strain BL21 (DE3) from the plasmids pACA/hCA I and pACA/hCA II described by Lindskog's group [54].
(§2) Non-enzymatic hydrolysis rates were always subtracted from the observed rates. […] Inhibitor and enzyme solutions were preincubated together for 10 min at room temperature prior to assay, in order to allow for the formation of the E-I complex. The inhibition constant KI was determined as described in references [44, 76].

For experiment [2], the target named is T2, bCA IV (Bos taurus, UniProt Q95323).
T2 construct: CA IV was isolated from bovine lung microsomes as described by Maren et al; from tissue; host or cells: bovine lung microsomes
T2 sequence (Q95323 19-284): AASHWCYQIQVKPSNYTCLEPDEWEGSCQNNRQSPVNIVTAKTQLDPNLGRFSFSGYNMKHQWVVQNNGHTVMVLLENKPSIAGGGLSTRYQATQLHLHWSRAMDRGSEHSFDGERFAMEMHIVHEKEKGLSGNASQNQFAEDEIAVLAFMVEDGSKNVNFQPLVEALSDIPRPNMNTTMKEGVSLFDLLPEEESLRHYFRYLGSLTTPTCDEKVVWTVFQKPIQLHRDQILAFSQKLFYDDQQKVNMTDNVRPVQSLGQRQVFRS
Kind of experiment: CA esterase activity assay, isozyme bCA IV. Type of experiment: biochemical, bovine.

The target in experiment [3] is T3, hCA II (Homo sapiens, UniProt P00918).
T3 construct: made in house; host or cells: Escherichia coli BL21 (DE3)
Nature of the experiment: CA esterase activity assay, isozyme hCA II. Format: biochemical.
Procedure: as §1, §2

In experiment [4] the target is hCA IX (Homo sapiens, UniProt Q16790). Nature of the experiment: CA CO2 hydrase activity assay, tumor-associated isozyme hCA IX.
Procedure: An SX.18MV-R Applied Photophysics stopped-flow instrument has been used for assaying the CA CO2 hydration activity assays [44]. […] Inhibitor and enzyme solutions were preincubated together for 10 min at room temperature prior to assay, in order to allow for the formation of the E-I complex.
Setting [5] is: Table 2, human (cloned) isozymes, read-out: KI hCA I.
Where [6] appears, read: Table 2, from bovine lung microsomes, read-out: KI bCA IV.
Setting [7] is: Table 2, human (cloned) isozymes, read-out: KI hCA II.
Where [8] appears, read: read-out: KI hCA IX, Table 2, catalytic domain of the human, cloned isozyme.
Setting [9] is: KI against CA IX, text discussion of Tables 1-3.
Where [10] appears, read: Table 3, human (cloned) isozymes, esterase assay method, read-out: KI hCA I.
The mark [11] stands for this setting: Table 3, from bovine lung microsomes, esterase assay method, read-out: KI bCA IV.
The mark [12] stands for this setting: Table 3, human (cloned) isozymes, esterase assay method, read-out: KI hCA II.
Setting [13] is: Tables 1 and 3, read-out: KI against CA II.
Setting [14] is: read-out: KI hCA IX, Table 3, catalytic domain of the human, cloned isozyme, CO2 hydrase assay method.
[15] abbreviates: Table 3, read-out: KI against CA I.

T1 sequence (P00915 whole entry): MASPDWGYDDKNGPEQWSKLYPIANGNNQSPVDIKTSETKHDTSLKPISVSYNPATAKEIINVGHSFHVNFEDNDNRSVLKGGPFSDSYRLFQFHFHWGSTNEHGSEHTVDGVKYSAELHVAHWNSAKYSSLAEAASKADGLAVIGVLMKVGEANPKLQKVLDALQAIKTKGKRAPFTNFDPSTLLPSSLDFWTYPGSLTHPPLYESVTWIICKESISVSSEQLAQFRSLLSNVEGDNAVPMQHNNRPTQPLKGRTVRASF

As for `Cc1cc(C)[n+](Cc2ccc(S(N)(=O)=O)cc2)c(C(C)C)c1` [Compound 40], the Ki in experiment [1] (setting [5]) was 6 µM; in experiment [2] (setting [6]), 0.08 µM; in experiment [3] (setting [7]), 0.05 µM; in experiment [4] (setting [8]), 0.042 µM.

On to `Cc1cc(C(C)C)[n+](Cc2ccc(S(N)(=O)=O)cc2)c(C(C)C)c1` [Compound 41], for which the inhibition constant Ki was found to be 11 µM in experiment [1] (setting [5]), 0.144 µM in experiment [2] (setting [6]), 0.08 µM in experiment [3] (setting [7]) and 0.054 µM in experiment [4] (setting [8]).

With `CCc1cc(-c2ccccc2)cc(CC)[n+]1Cc1ccc(S(N)(=O)=O)cc1` [Compound 43], the Ki in experiment [1] (setting [5]) amounted to 2 µM; in experiment [2] (setting [6]), 0.052 µM; in experiment [3] (setting [7]), 0.021 µM; in experiment [4] (setting [8]), 0.029 µM.

For `CCCc1cc(-c2ccccc2)cc(CCC)[n+]1Cc1ccc(S(N)(=O)=O)cc1` [Compound 44], the inhibitory constant (Ki) in experiment [1] (setting [5]) was 24 µM; in experiment [2] (setting [6]) it was 0.163 µM; in experiment [3] (setting [7]), 0.09 µM; in experiment [4], 0.16 to 0.45 µM; in experiment [4] (setting [8]), 0.23 µM.

For `Cc1cc(-c2ccccc2)cc(-c2ccccc2)[n+]1Cc1ccc(S(N)(=O)=O)cc1` [Compound 46], the Ki in experiment [1] (setting [5]) was 32 µM; in experiment [2] (setting [6]), 0.161 µM; in experiment [3] (read-out: KI hCA II) it was 0.121 µM; in experiment [4] (setting [8]), 0.064 µM.

With `CCc1cc(-c2ccccc2)cc(-c2ccccc2)[n+]1Cc1ccc(S(N)(=O)=O)cc1.[O-][Cl+3]([O-])([O-])[O-]` [Compound 47], the inhibition constant (Ki) in experiment [1] (setting [5]) is 42 µM; in experiment [2] (setting [6]), 0.983 µM; in experiment [3] (setting [7]), 0.314 µM; in experiment [4] (setting [8]), 0.079 µM.

`CCCc1cc(-c2ccccc2)cc(-c2ccccc2)[n+]1Cc1ccc(S(N)(=O)=O)cc1` [Compound 48]: the inhibitory constant (Ki) in experiment [1] (setting [5]) was found to be 130 µM; in experiment [2] (setting [6]), 1.26 µM; in experiment [3] (setting [7]), 0.39 µM; in experiment [4] (setting [8]), 0.085 µM.

On to `CCCCc1cc(-c2ccccc2)cc(-c2ccccc2)[n+]1Cc1ccc(S(N)(=O)=O)cc1.[O-][Cl+3]([O-])([O-])[O-]` [Compound 50], for which the Ki in experiment [1] (setting [5]) came out at 300 µM; in experiment [2] (setting [6]) it was 2.1 µM; in experiment [3] (setting [7]), 0.595 µM; in experiment [4] (setting [8]), 0.135 µM.

`NS(=O)(=O)c1ccc(C[n+]2c(-c3ccccc3)cc(-c3ccccc3)cc2-c2ccccc2)cc1` [Compound 52]: the Ki in experiment [1] (setting [5]) is 280 µM; in experiment [2] (setting [6]) it was 1.96 µM; in experiment [3] (setting [7]) it was 0.472 µM; in experiment [4] it was 0.064 to 0.135 µM; in experiment [4] (setting [8]), 0.12 µM.

On to `NS(=O)(=O)c1ccc(C[n+]2c(-c3ccccc3)cccc2-c2ccccc2)cc1` [Compound 53], for which the Ki in experiment [1] (setting [5]) is 280 µM; in experiment [2] (setting [6]) it was 1.95 µM; in experiment [3] (setting [7]), 0.493 µM; in experiment [4], 0.064 to 0.135 µM; in experiment [4] (setting [8]) it was 0.106 µM.

As to `Cc1cc(C)[n+](Cc2ccc(S(N)(=O)=O)cc2)c(C)c1C` [Compound 54], the Ki in experiment [1] (setting [5]) is 3 µM; in experiment [2] (setting [6]), 0.051 µM; in experiment [3] (read-out: KI hCA II) it was 0.03 µM; in experiment [4] (setting [9]), 0.006 to 0.054 µM; in experiment [4] (setting [8]), 0.035 µM.

Take `Cc1cc(C)[n+](CCc2ccc(S(N)(=O)=O)cc2)c(C(C)C)c1` [Compound 56]: the Ki in experiment [1] (setting [5]) is 2 µM; in experiment [2] (setting [6]), 0.032 µM; in experiment [3] (setting [7]), 0.015 µM; in experiment [4] (setting [8]) it was 0.031 µM.

With `Cc1cc(C(C)C)[n+](CCc2ccc(S(N)(=O)=O)cc2)c(C(C)C)c1` [Compound 57], the inhibition constant (Ki) in experiment [1] (setting [5]) was found to be 3 µM; in experiment [2] (setting [6]) it was 0.07 µM; in experiment [3] (setting [7]) it was 0.02 µM; in experiment [4] (setting [8]) it was 0.049 µM.

For `Cc1cc(-c2ccccc2)cc(C)[n+]1CCc1ccc(S(N)(=O)=O)cc1` [Compound 58], the Ki in experiment [1] (setting [5]) is 1 µM; in experiment [2] (setting [6]), 0.02 µM; in experiment [3] (setting [7]), 0.008 µM; in experiment [4] (setting [9]) it was less than 0.01 µM; in experiment [4] (setting [8]), 0.006 µM.

For `CCc1cc(-c2ccccc2)cc(CC)[n+]1CCc1ccc(S(N)(=O)=O)cc1` [Compound 59], the Ki in experiment [1] (setting [5]) is 1 µM; in experiment [2] (setting [6]), 0.021 µM; in experiment [3] (setting [7]), 0.009 µM; in experiment [4] it was less than 0.01 µM; in experiment [4] (setting [8]) it was 0.008 µM.

`CCCc1cc(-c2ccccc2)cc(CCC)[n+]1CCc1ccc(S(N)(=O)=O)cc1` [Compound 60]: the Ki in experiment [1] (setting [5]) was 7 µM; in experiment [2] (setting [6]) it was 0.082 µM; in experiment [3] (setting [7]), 0.042 µM; in experiment [4], 0.16 to 0.45 µM; in experiment [4] (setting [8]), 0.205 µM.

Turning to `CCCc1cc(-c2ccccc2)cc(-c2ccccc2)[n+]1CCc1ccc(S(N)(=O)=O)cc1` [Compound 64], the Ki in experiment [1] (setting [5]) turned out to be 112 µM; in experiment [2] (read-out: KI bCA IV), 1.05 µM; in experiment [3] (setting [7]) it was 0.27 µM; in experiment [4] (setting [8]), 0.084 µM.

Turning to `CCCCc1cc(-c2ccccc2)cc(-c2ccccc2)[n+]1CCc1ccc(S(N)(=O)=O)cc1` [Compound 66], the Ki turned out to be 290 µM in experiment [1] (setting [5]), 2.01 µM in experiment [2] (setting [6]), 0.544 µM in experiment [3] (setting [7]) and 0.12 µM in experiment [4] (setting [8]).

With `NS(=O)(=O)c1ccc(CC[n+]2c(-c3ccccc3)cccc2-c2ccccc2)cc1` [Compound 69], the Ki is 265 µM in experiment [1] (setting [5]); 1.91 µM in experiment [2] (setting [6]); 0.42 µM in experiment [3] (read-out: KI hCA II); 0.064 to 0.135 µM in experiment [4]; 0.081 µM in experiment [4] (setting [8]).

As to `Cc1cc(C)[n+](CCc2ccc(S(N)(=O)=O)cc2)c(C)c1C` [Compound 70], the Ki was 2 µM in experiment [1] (setting [5]); 0.021 µM in experiment [2] (setting [6]); 0.01 µM in experiment [3] (setting [7]); 0.006 to 0.054 µM and < 0.01 µM in experiment [4] (setting [9]); 0.008 µM in experiment [4] (setting [8]).

Consider `Cc1cc(C)[n+](-c2ccc(S(=O)(=O)Nc3nnc(S(N)(=O)=O)s3)cc2)c(C(C)C)c1` [Compound 72, 1-N-[5-Sulfamoyl-1,3,4-thiadiazol-2-yl-(aminosulfonyl-4-phenyl)]-2-iso-propyl-4,6-dimethylpyridinium perchlorate], for which the Ki in experiment [1] (setting [10]) was 0.004 µM; in experiment [2] (setting [11]) it was 0.003 µM; in experiment [3] (setting [12]), 0.00039 µM; in experiment [3] (setting [13]), 0.0002 to 0.00161 µM; in experiment [4], 0.003 to 0.009 µM; in experiment [4] (setting [14]), 0.005 µM.

Take `Cc1cc(C(C)C)[n+](-c2ccc(S(=O)(=O)Nc3nnc(S(N)(=O)=O)s3)cc2)c(C(C)C)c1` [Compound 73, 1-N-[5-Sulfamoyl-1,3,4-thiadiazol-2-yl-(aminosulfonyl-4-phenyl)]-2,6-di-iso-propyl-4-methylpyridinium perchlorate]: the Ki in experiment [1] (setting [10]) is 0.007 µM; in experiment [1] (setting [15]) it was 0.007 to 0.012 µM; in experiment [2] (setting [11]), 0.0047 µM; in experiment [3] (setting [12]) it was 0.00154 µM; in experiment [3] (setting [13]), 0.0002 to 0.00161 µM; in experiment [4] (setting [9]), 0.012 to 0.035 µM. Also, the Ki in experiment [4] (setting [14]) was found to be 0.016 µM.

For the compound `Cc1cc(C(C)(C)C)[n+](-c2ccc(S(=O)(=O)Nc3nnc(S(N)(=O)=O)s3)cc2)c(C(C)(C)C)c1` [Compound 74], the Ki in experiment [1] (setting [10]) is 0.011 µM; in experiment [1] (setting [15]), 0.007 to 0.012 µM; in experiment [2] (setting [11]), 0.0094 µM; in experiment [2] (Table 3, read-out: KI against CA IV), 0.0052 to 0.0103 µM; in experiment [3] (setting [12]), 0.00313 µM; in experiment [3] (setting [13]) it was 0.00313 to 0.00596 µM. Also, the values for the Ki in experiment [4] and in experiment [4] (setting [14]) were 0.012 to 0.035 µM and 0.034 µM, respectively.

Consider `Cc1cc(-c2ccccc2)cc(C)[n+]1-c1ccc(S(=O)(=O)Nc2nnc(S(N)(=O)=O)s2)cc1` [Compound 75, 1-N-[5-Sulfamoyl-1,3,4-thiadiazol-2-yl-(aminosulfonyl-4-phenyl)]-2,6-dimethyl-4-phenylpyridinium perchlorate], for which the Ki was 0.003 µM in experiment [1] (setting [15]); 0.002 µM in experiment [2] (setting [11]); 0.0002 µM in experiment [3] (setting [12]); 0.0002 to 0.00161 µM in experiment [3] (read-out: KI against CA II); 0.003 to 0.009 µM in experiment [4] (setting [9]); 0.006 µM in experiment [4] (setting [14]).
